Results on one sequence are retold here after patent US11179450B2, “Long chain antigen containing interepitope sequence that promotes antigen presentation to T cells” (MIE UNIVERSITY, priority 2013, dated 2021).

The subject of assay [1] is NY p81 specific CD8+ T cells. Kind of assay: Specific CD8+ T cell induction in mice, intracellular cytokine staining (NY p81 epitope). The assay is classed as in vivo, BALB/c mice. The following applies: FIG. 6; comparing one to six tyrosines. An excerpt:
A long chain peptide antigen ESO1 LP (native type) (Sequence No. 16) and a long chain peptide antigen ESO1 LP (Y6) (Sequence No. 17), both containing a mouse CD8+ T cell epitope sequence (NY p81 or NY p82) and a mouse CD4+ T cell epitope sequence (NY p91) that are derived from human NY-ESO-1 antigen, were synthesized. As the interepitope sequence between epitopes, the native amino acid sequence of NY-ESO-1 was retained in the ESO1 LP (native type) and the sequence of six consecutive tyrosines (Y6) was used in the ESO1 LP (Y6). Vaccines containing the respective long chain peptide antigens were administered to mice in the same manner as in FIG. 1 and the frequencies of CD8+ T cells and CD4+ T cells specific to the respective epitope sequences were measured by the intracellular cytokine staining method.
Long chain peptide antigens MEN, all containing three types of mouse CD8+ T cell epitope sequences (MA p265 (Sequence No. 27), NY p81 (Sequence No. 29), and mERK2 9m (Sequence No. 28)), were synthesized. The interepitope sequences between the respective epitopes were one to six consecutive tyrosines (Sequence Nos. 1 and 9-12). Vaccines containing the respective long chain peptide antigens were administered to mice in the same manner as in FIG. 1 and the frequencies of CD8+ T cells specific to the respective epitope sequences were measured by the intracellular cytokine staining method.
Long chain peptide antigens MEN, all containing three types of mouse CD8+ T cell epitope sequences (MA p265 (Sequence No. 27), NY p81 (Sequence No. 29), and mERK2 9m (Sequence No. 28)), were synthesized. The interepitope sequences between the respective epitopes were five to ten consecutive tyrosines (Sequence Nos. 1 and 13-15). Vaccines containing the respective long chain peptide antigens were administered to mice in the same manner as in FIG. 1 and the frequencies of CD8+ T cells specific to the respective epitope sequences were measured by the intracellular cytokine staining method. […]

Assay [2] concerns CD11c+ cells (dendritic cells). Kind of assay: In vitro uptake of FAM-labeled long chain peptide antigens by antigen-presenting cells (dendritic cells). Type of assay: cell-based. Conditions: FIG. 8, complexed with CHP, 10 μg/mL, mouse spleen cells, 60 minutes, in comparison to G6 and P6. An excerpt: Long chain peptide antigens MEN, all containing three types of mouse CD8+ T cell epitope sequences (MA p265 (Sequence No. 27), NY p81 (Sequence No. 29), and mERK2 9m (Sequence No. 28)), were synthesized. The interepitope sequences between the respective epitopes were respectively six consecutive tyrosines (Y6), six consecutive glycines (G6), or six consecutive prolines (P6) (Sequence Nos. 1-3). Each long chain peptide antigen, labeled with the fluorescent dye FAM, was complexed with CHP and administered in vitro to mouse dendritic cells and mouse macrophages. After 60 minutes, the fluorescence uptakes into the respective cells were measured by flow cytometry with the P5 fraction in the figure being deemed to correspond to the dendritic cells and the P6 fraction in the figure being deemed to correspond to the macrophages.
In vitro uptake of the long chain peptide antigens by antigen-presenting cells was measured as follows. Each long chain peptide labeled with a fluorescent dye was complexed with CHP by the method described above. Spleen cells separated from a normal mouse were added at 1×10^6 cells/0.5 mL/well to a 24-well plate. […] The uptake of the fluorescence-labeled long chain peptide antigens by CD11c^+ cells (dendritic cells) and F4/80^+ cells (macrophages) were observed using flow cytometry.

For the sequence “SNPARYEFLYYYYYYQYIHSANVLYYYYYYRGPESRLL (Long chain peptide antigen, containing three types of mouse CD8+ T cell epitope sequences (MA p265, NY p81, and mERK2 9m)) [MEN(Y6)]”, the “induction of specific CD8+ T cells, NY p81 (third epitope)” value in assay [1] is listed as “highest”. Besides, the “fluorescence uptake into dendritic cells” value in assay [2] is on record as “significantly higher”.
